Measurements from PubChem BioAssay (NCI).
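These data come from cells grown in 96-well plates and exposed to compound for 48 hours at five concentrations. TGI is the concentration that stops growth completely.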

Assays:
Test in all cases: growth of human tumour cells (NCI), 48 h
[1] = test system: TK-10 renal
[2] = test system: UO-31 renal
[3] = test system: OVCAR-3 ovarian
[4] = test system: CCRF-CEM leukemia
[5] = test system: HOP-62 NSCLC
[6] = test system: SNB-19 CNS
[7] = test system: LOX IMVI melanoma
[8] = test system: HL-60(TB) leukemia
[9] = test system: MCF7 breast
[10] = test system: MDA-N
[11] = test system: EKVX NSCLC
[12] = test system: NCI-H226 lung
[13] = test system: NCI-H23 lung
[14] = test system: PC-3 prostate
[15] = test system: HCC-2998 colon
[16] = test system: DU-145 prostate
[17] = test system: MALME-3M melanoma
[18] = test system: SW-620 colon
[19] = test system: UACC-62 melanoma
[20] = test system: NCI/ADR-RES ovarian
[21] = test system: SK-OV-3 ovarian
[22] = test system: HCT-15 colon
[23] = test system: SF-539 CNS
[24] = test system: U251 CNS
[25] = test system: KM12 colon
[26] = test system: COLO 205 colon
[27] = test system: SN12C renal
[28] = test system: HT29 colon
[29] = test system: SK-MEL-28 melanoma
[30] = test system: HS 578T breast
[31] = test system: HCT-116 colon
[32] = test system: HOP-92 NSCLC
[33] = test system: SF-295 CNS
[34] = test system: IGROV1 ovarian
[35] = test system: ACHN renal
[36] = test system: OVCAR-8 ovarian
[37] = test system: SR leukemia
[38] = test system: SNB-75 CNS
[39] = test system: K-562 leukemia
[40] = test system: 786-0 renal
[41] = test system: MDA-MB-231 breast
[42] = test system: CAKI-1 renal
[43] = test system: MDA-MB-435
[44] = test system: MOLT-4 leukemia
[45] = test system: T-47D breast
[46] = test system: OVCAR-5 ovarian
[47] = test system: OVCAR-4 ovarian
[48] = test system: M14 melanoma
[49] = test system: RPMI-8226 leukemia
[50] = test system: SF-268 CNS
[51] = test system: A549 NSCLC
[52] = test system: NCI-H460 lung
[53] = test system: SK-MEL-2 melanoma
[54] = test system: UACC-257 melanoma
[55] = test system: SK-MEL-5 melanoma
[56] = test system: RXF 393 renal
[57] = test system: A498 renal
[58] = test system: NCI-H522 lung

## CC1(C)N=C(C(=O)c2ccccc2)N(O)C1(O)c1ccccc1 (stereo not drawn)
[1]
  TGI: > 100 µM
[2]
  TGI: > 100 µM
[3]
  TGI: > 100 µM
[4]
  TGI: > 100 µM
[5]
  TGI: > 100 µM
[6]
  TGI: > 100 µM
[7]
  TGI: > 100 µM
[8]
  TGI: > 100 µM
[9]
  TGI: > 100 µM
[10]
  TGI: > 100 µM
[11]
  TGI: > 100 µM
[12]
  TGI: > 100 µM
[13]
  TGI: > 100 µM
[14]
  TGI: > 100 µM
[15]
  TGI: > 100 µM
[16]
  TGI: > 100 µM
[17]
  TGI: > 100 µM
[18]
  TGI: > 100 µM
[19]
  TGI: > 100 µM
[20]
  TGI: > 100 µM
[21]
  TGI: > 100 µM
[22]
  TGI: > 100 µM
[23]
  TGI: > 100 µM
[24]
  TGI: > 100 µM
[25]
  TGI: > 100 µM
[26]
  TGI: > 100 µM
[27]
  TGI: > 100 µM
[28]
  TGI: > 100 µM
[29]
  TGI: > 100 µM
[30]
  TGI: > 100 µM
[31]
  TGI: > 100 µM
[32]
  TGI: > 100 µM
[33]
  TGI: > 100 µM
[34]
  TGI: > 100 µM
[35]
  TGI: > 100 µM
[36]
  TGI: > 100 µM
[37]
  TGI: > 100 µM
[38]
  TGI: > 100 µM
[39]
  TGI: > 100 µM
[40]
  TGI: > 100 µM
[41]
  TGI: > 100 µM
[42]
  TGI: > 100 µM
[43]
  TGI: > 100 µM
[44]
  TGI: > 100 µM
[45]
  TGI: > 100 µM
[46]
  TGI: > 100 µM
[47]
  TGI: > 100 µM
[48]
  TGI: > 100 µM
[49]
  TGI: > 100 µM
[50]
  TGI: > 100 µM
[51]
  TGI: > 100 µM
[52]
  TGI: > 100 µM
[53]
  TGI: > 100 µM
[54]
  TGI: > 100 µM
[55]
  TGI: > 100 µM
[56]
  TGI: > 100 µM

## COC(CN(C=O)[C@@H](c1ccc(Cl)cc1)c1cc2ccccc2o1)OC
[1]
  TGI: 33.4 µM
[2]
  TGI: 31.2 µM
[3]
  TGI: 26.8 µM
[4]
  TGI: 44 µM
[5]
  TGI: 43.5 µM
[6]
  TGI: 41.2 µM
[7]
  TGI: 34.5 µM
[8]
  TGI: 46.3 µM
[9]
  TGI: 34.8 µM
[57]
  TGI: 33.1 µM
[10]
  TGI: 31.6 µM
[11]
  TGI: 34.4 µM
[12]
  TGI: 34 µM
[13]
  TGI: 39.2 µM
[14]
  TGI: 45.6 µM
[16]
  TGI: 30.9 µM
[17]
  TGI: 11.5 µM
[18]
  TGI: 31.4 µM
[19]
  TGI: 29.7 µM
[20]
  TGI: 41.9 µM
[21]
  TGI: 26.6 µM
[22]
  TGI: 32.8 µM
[23]
  TGI: 34.3 µM
[24]
  TGI: 31.8 µM
[25]
  TGI: 31.4 µM
[26]
  TGI: 33.5 µM
[27]
  TGI: 31.1 µM
[28]
  TGI: 36.3 µM
[29]
  TGI: 34.5 µM
[30]
  TGI: 27.6 µM
[31]
  TGI: 32.9 µM
[32]
  TGI: 33.7 µM
[33]
  TGI: 31 µM
[34]
  TGI: 30.7 µM
[35]
  TGI: 41.7 µM
[58]
  TGI: 29.2 µM
[36]
  TGI: 31.3 µM
[38]
  TGI: 42.7 µM
[39]
  TGI: 53.6 µM
[40]
  TGI: 51.1 µM
[41]
  TGI: 37 µM
[42]
  TGI: 34.7 µM
[43]
  TGI: 35.5 µM
[44]
  TGI: 40 µM
[45]
  TGI: 33.8 µM
[46]
  TGI: 29.8 µM
[47]
  TGI: 40 µM
[48]
  TGI: 37.1 µM
[49]
  TGI: 35.3 µM
[50]
  TGI: 30.9 µM
[51]
  TGI: 45.4 µM
[52]
  TGI: 33.3 µM
[53]
  TGI: 31.9 µM
[54]
  TGI: 28 µM
[55]
  TGI: 28.9 µM
[56]
  TGI: 28.4 µM

## COC(=O)C1ON2C(C1C(=O)OC)C(C)(C)N(O)C2(C)C (stereo not drawn)
[1]
  TGI: > 10 µM
[3]
  TGI: > 10 µM
[6]
  TGI: > 10 µM
[10]
  TGI: > 10 µM
[11]
  TGI: > 10 µM
[12]
  TGI: > 10 µM
[13]
  TGI: > 10 µM
[14]
  TGI: > 10 µM
[16]
  TGI: > 10 µM
[18]
  TGI: > 10 µM
[20]
  TGI: > 10 µM
[22]
  TGI: > 10 µM
[23]
  TGI: > 10 µM
[24]
  TGI: > 10 µM
[25]
  TGI: > 10 µM
[26]
  TGI: > 10 µM
[27]
  TGI: > 10 µM
[28]
  TGI: > 10 µM
[29]
  TGI: > 10 µM
[31]
  TGI: > 10 µM
[32]
  TGI: > 10 µM
[33]
  TGI: > 10 µM
[34]
  TGI: > 10 µM
[35]
  TGI: > 10 µM
[36]
  TGI: > 10 µM
[38]
  TGI: > 10 µM
[41]
  TGI: > 10 µM
[42]
  TGI: > 10 µM
[43]
  TGI: > 10 µM
[46]
  TGI: > 10 µM
[47]
  TGI: > 10 µM
[48]
  TGI: > 10 µM
[50]
  TGI: > 10 µM
[51]
  TGI: > 10 µM
[55]
  TGI: > 10 µM
[56]
  TGI: > 10 µM
